Results taken from ChEMBL document CHEMBL1201862, “PubChem BioAssay data set” (2004).
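Briefly, cells in 96-well plates were exposed to five compound concentrations for 48 h, and endpoints were estimated by linear interpolation. The concentration for 50% growth inhibition is given as GI50.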 Active and inactive are the calls of the source. Rule as the data show it: active = GI50 up to about 1.1 µM and inactive = higher.

Legend:
Assay in all cases: inhibition of tumour cell growth, NCI panel, 48 h
DLD-1 = test system: DLD-1
DMS-114 = test system: DMS-114
DMS-273 = test system: DMS-273
HOP-18 = test system: HOP-18
M19-MEL = test system: M19-MEL
SNB-78 = test system: SNB-78
XF498 = test system: XF498
LXFL 529 = test system: LXFL 529
RXF 631 = test system: RXF 631

Row | SMILES | GI50 (DLD-1) | GI50 (DMS-114) | GI50 (DMS-273) | GI50 (HOP-18) | GI50 (M19-MEL) | GI50 (SNB-78) | GI50 (XF498) | GI50 (LXFL 529) | GI50 (RXF 631)
1 | CN1N=C(N)c2cn(C3OC(COP(=O)(O)O)C(O)C3O)c3ncnc1c23 (stereo not drawn) | 1.03 µM (active) | 1620 µM (inactive) | 18.9 µM (inactive) | 9.14 µM (inactive) | 390 µM (inactive) | 79.6 µM (inactive) | 12.4 µM (inactive) |  | 
2 | CNc1ccc(/C=C2\C=Cc3ccccc32)cc1 | 31.3 µM (inactive) | 17 µM (inactive) | 14.2 µM (inactive) | 16.4 µM (inactive) | 43.2 µM (inactive) | 44.6 µM (inactive) | 40.9 µM (inactive) | 25.9 µM (inactive) | 
3 | O=C(O)[C@H](NS(=O)(=O)c1ccc2ccccc2c1)c1ccccc1 | > 100 µM (inactive) |  | > 100 µM (inactive) | > 100 µM (inactive) | > 100 µM (inactive) |  | 99.3 µM (inactive) | > 100 µM (inactive) | > 100 µM (inactive)
4 | NNC(=S)N/N=C(\c1nc2ccc(Cl)cc2nc1O)C(O)c1cccc([N+](=O)[O-])c1 (stereo not drawn) |  |  | > 41.1 µM (inactive) | > 100 µM (inactive) | > 100 µM (inactive) | > 100 µM (inactive) | > 100 µM (inactive) | > 74.6 µM (inactive) | 32.3 µM (inactive)
5 | CN(C)C(=S)/N=c1\ss/c(=N\C(=S)N(C)C)n1-c1ccc(Cl)cc1 |  |  | 39.9 µM (inactive) |  |  | > 100 µM (inactive) | > 100 µM (inactive) | > 100 µM (inactive) | 
6 | N#CCC(=O)N/N=C(\C(=O)Nc1ccc(Cl)c(Cl)c1)C1CN(c2ccccc2)N=C1N (stereo not drawn) | > 100 µM (inactive) | > 100 µM (inactive) | > 100 µM (inactive) | > 100 µM (inactive) | > 100 µM (inactive) | > 100 µM (inactive) |  | > 100 µM (inactive) | 
7 | CC1=CC(=O)C(C)(C2=NC(C)(C)CO2)c2ccccc21 (stereo not drawn) | > 100 µM (inactive) | > 100 µM (inactive) |  | 31.6 µM (inactive) | > 100 µM (inactive) |  |  | > 100 µM (inactive) | > 100 µM (inactive)
8 | Cc1ccccc1NC(=O)C(=O)C(C#N)c1ccccc1C (stereo not drawn) | > 100 µM (inactive) | > 100 µM (inactive) | > 100 µM (inactive) | > 100 µM (inactive) |  | > 100 µM (inactive) | 34 µM (inactive) | > 100 µM (inactive) | 
9 | COC(=O)N/N=C(\c1nc2ccc(Cl)cc2nc1O)C(O)c1ccc([N+](=O)[O-])cc1 (stereo not drawn) | > 100 µM (inactive) | > 100 µM (inactive) | > 100 µM (inactive) |  | > 100 µM (inactive) | > 100 µM (inactive) |  | > 100 µM (inactive) | > 100 µM (inactive)
10 | O=C1c2cc([N+](=O)[O-])cc3cc([N+](=O)[O-])cc(c23)C(=O)N1CCCNCCNCCCN1C(=O)c2cc([N+](=O)[O-])cc3cc([N+](=O)[O-])cc(c23)C1=O | 0.0282 µM (active) | 0.0469 µM (active) | < 0.01 µM (active) | 0.542 µM (active) | 0.0381 µM (active) | < 0.0193 µM (active) | < 0.01 µM (active) | < 0.01 µM (active) | 
11 | Cn1cc(C(=O)C2CCCCC2)ccc1=O | > 100 µM (inactive) | > 100 µM (inactive) | > 100 µM (inactive) |  |  | > 100 µM (inactive) | > 100 µM (inactive) |  | > 100 µM (inactive)
12 | O=CC[C@H]1CCc2ccccc2C12CCC(=O)CC2 | 60.7 µM (inactive) | 33.8 µM (inactive) |  |  | 57.7 µM (inactive) |  | 51.5 µM (inactive) | 57.5 µM (inactive) | > 100 µM (inactive)
13 | O=C1C2C(C(=O)N1c1ccccc1)C1c3ccccc3C2C2C(=O)N(c3ccccc3)C(=O)C21 (stereo not drawn) | 2.73 µM (inactive) | 3.08 µM (inactive) | 3.46 µM (inactive) | > 100 µM (inactive) | 39.5 µM (inactive) |  |  | 38.5 µM (inactive) | 
14 | O=S1OC2(c3ccccc3-c3ccccc32)c2ccccc21 (stereo not drawn) | > 100 µM (inactive) | > 100 µM (inactive) |  | > 100 µM (inactive) | > 100 µM (inactive) |  | > 100 µM (inactive) | > 100 µM (inactive) | 
15 | CC1(C)Oc2ccccc2N2O[C@@H]3C(=O)N(c4ccccc4)C(=O)[C@@H]3C21c1ccccc1 (stereo partly drawn) | 25.1 µM (inactive) | 23.2 µM (inactive) |  | 24.3 µM (inactive) | 29 µM (inactive) | 35.5 µM (inactive) |  | 56.1 µM (inactive) | 
16 | CC1OC(=O)C2CC3CCCCC3C(/C=C/C3CCCC(C)N3C)C12 (stereo not drawn) | > 100 µM (inactive) | > 100 µM (inactive) | > 100 µM (inactive) | > 100 µM (inactive) | > 100 µM (inactive) | > 22.5 µM (inactive) | > 100 µM (inactive) | > 100 µM (inactive) | 
17 | CCOC(=O)c1csc(CCCCCCc2nc(C(=O)OCC)cs2)n1 | > 61.4 µM (inactive) |  | 41.2 µM (inactive) | 75.5 µM (inactive) | 21.9 µM (inactive) | 45.3 µM (inactive) | 26.7 µM (inactive) | 56.1 µM (inactive) | > 87.7 µM (inactive)
18 | O=C1C2=C(c3ccccc31)C(c1ccccc1Cl)NC(S)=N2 (stereo not drawn) | 64.9 µM (inactive) |  | 68.7 µM (inactive) |  | 44.2 µM (inactive) |  | 25.6 µM (inactive) | 35.3 µM (inactive) | 
19 | CCCCCCCCCCCC[S+](C)C | 8.81 µM (inactive) | 2.5 µM (inactive) | 5.2 µM (inactive) | 4.97 µM (inactive) | 1.45 µM (inactive) | 5.2 µM (inactive) | 2.69 µM (inactive) |  | 
20 | COC(=O)c1oc([N+](=O)[O-])c(-c2ccccc2)c1-c1ccccc1 | 76.2 µM (inactive) | 88.3 µM (inactive) | > 100 µM (inactive) | > 100 µM (inactive) | 36.8 µM (inactive) | > 100 µM (inactive) | > 100 µM (inactive) | > 100 µM (inactive) | > 100 µM (inactive)
21 | N#Cc1c(N)c(C(=O)O)nn(-c2cccc(C(F)(F)F)c2)c1=O | 70.3 µM (inactive) |  |  | 29.2 µM (inactive) | > 100 µM (inactive) | > 100 µM (inactive) | > 100 µM (inactive) | > 100 µM (inactive) | > 100 µM (inactive)
22 | C=CCn1c2c(sc1=S)C(S)NC=N2 (stereo not drawn) | > 100 µM (inactive) | 43.7 µM (inactive) | > 100 µM (inactive) | 18.9 µM (inactive) | > 100 µM (inactive) | 78.2 µM (inactive) | > 100 µM (inactive) | > 100 µM (inactive) | 
23 | C=C1C(=O)OC2/C=C(\C=O)CC/C=C(\C)C(O)C[C@@H]12 (stereo partly drawn) | 2.39 µM (inactive) | 11.7 µM (inactive) | 4.36 µM (inactive) | 16.9 µM (inactive) | 5.45 µM (inactive) | 4.24 µM (inactive) | 4.99 µM (inactive) | 3.36 µM (inactive) | 
